The values below come from publication PMC3549917, “Characterization of two antimicrobial peptides produced by a halotolerant Bacillus subtilis strain SK.DU.4 isolated from a rhizosphere soil sample” (AMB Express, 2013).

Where no end group is shown, it is not given here.

Experiment in all cases: Well diffusion assay, inhibition spectrum
Type in all cases: cell-based

One assay concerns S. mutans MTCC497. The settings on record: lipopeptide combined with bacteriocin-like peptide. Here is the method: (§1) The bacteriocin activity was determined by well diffusion assay. The strain was grown for 24 h in 200 ml nutrient broth (NB, Himedia) using 500 ml flask and subsequently cells were removed by centrifugation (8000 rpm for 20 min, 4°C). The supernatant obtained was filtered by using 0.22 μm filter (Millipore), diluted by two fold and used to test the activity as mentioned earlier (Singh et al. [2012]). The antimicrobial peptide production was also tested by growing the strain in minimal medium. To examine the antimicrobial activity, S. aureus cells were processed for scanning electron micrograph (SEM) as described by earlier (Singh et al. [2012]). Growth curve was prepared to examine the bacteriocin production along with the growth of strain SK.DU4.
(§2) Although the antimicrobial peptides were produced in NB for large scale preparation, the influence of different carbon and nitrogen sources on peptides production was tested using minimal medium. […] The optimum pH for the production of antimicrobial peptides was 7.2 and there was no significant change in pH was observed during the production of antimicrobial peptides. The bacteriocin-like peptide was extracted from CFB by hydrophobic interaction chromatography using Diaion HP-20 beads and purified by a combination of chromatography techniques as described previously (Singh et al. [2012]). Subsequently, the purified peptide was tested for antimicrobial activity against an array of Gram-positive and Gram-negative bacteria, yeasts and fungi strains using well diffusion assays.

A further assay has as its system M. luteus MTCC106. The settings on record: 100 μl of the lowest dilution inhibiting test strain, similar results in three individual experiments. Here is the method:
as §1, §2

The next assay deals with L. monocytogenes MTCC839. The settings on record: 100 μl of the lowest dilution inhibiting test strain, similar results in three individual experiments. The protocol: as §1, §2
A further assay concerns B. subtilis MTCC121. The settings on record: Polymyxin B at 300 U. Here is the method:
as §1, §2

Turning to “DYNQPNS (also: lariat or depsi (positions not given here)) [Lipopeptide, cyclic iturin-like lipopeptide (m/z 1056 Da), β-hydroxy fatty acid linked to Ser of heptapeptide, from strain SK.DU.4]”, the “growth inhibition in combination with bacteriocin-like peptide” value in the assay on S. mutans MTCC497 is given as “inhibited the growth”. Further, the inhibition zone in the assay with M. luteus MTCC106 and in the assay with L. monocytogenes MTCC839 was 11 mm throughout. Also, in the assay with B. subtilis MTCC121, the Inhibition activity entry is given as “inhibited growth”.
